This note sets out measurements from paper PMC9496819 (Cancers, 2022).

The test system of data set [1] is HOSE6.3 cells. Nature of the data set: Presto Blue cell viability assay in non-tumoral cells, single drugs and Paclitaxel combinations (Chou–Talalay, Bliss, HSA analysis). Particulars: for IC50 (in words) / IC50: 48 h; for IC50 (in words): considered concentration ranges; for Cellular viability (%) Media: HOSE6.3, 48 h, alone or combined. The protocol: (§1) To determine the effect of single and combination drug treatments on the cellular viability of cell lines, a resazurin-based assay—Presto Blue (PB)—was performed. Briefly, 5 × 10^3 cells/well were seeded into a 96-well plate in complete media, incubated at 37 °C and 5% CO2 and allowed to adhere overnight prior to drug exposure. After 24 h, cells were exposed to increasing concentrations of drugs and incubated under the same conditions. After 48 h, culture medium was removed, and 50 μL/well of PrestoBlue^TM Cell Viability Reagent 1× (ThermoFisher Scientific) was added. Cells were incubated for 45 min, protected from light, at 37 °C and 5% CO2.
(§2) The IC50 values were first obtained for each drug alone for OVCAR8, OVCAR8 PTX R P and HOSE6.3 cell lines. […] A mutually exclusive model, assuming that drugs act through […] mechanisms, was used for this analysis. […] The CI is a quantitative representation of pharmacological interactions (i.e., CI < 1, synergism; =1, additive interactions; and >1, antagonism), plotted on y-axis as a function of effect level (Fa) on the x-axis to assess drug synergism between drug combinations. Additionally, we estimated the expected drug combination responses based on the Bliss Independence and Highest Single Agent (HSA) reference models using SynergyFinder 2.0 Software. Positive and negative synergy score values denote synergy and antagonism, respectively. The cNMF algorithm implemented in SynergyFinder 2.0 was used for estimation of outlier measurements.

In data set [2] the test system is OVCAR8 PTX R P cells. As to the kind of experiment: Presto Blue cell viability assay, single drugs and Paclitaxel combinations (Chou–Talalay, Bliss, HSA analysis). The conditions noted are these: for Cellular viability (%) Media: alone or combined. The method, then: as §1, §2
Data set [3] relates to OVCAR8 cells. The description is as above. Particulars: for Cellular viability (%) Media: OVCAR8, 48 h, alone or combined. The method, then:
as §1, §2

A short description of data set [4]: Presto Blue cell viability assay in non-tumoral cells, single drugs and Paclitaxel combinations (Chou–Talalay, Bliss, HSA analysis). Particulars: human, HOSE6.3 cells (non-tumoral). The protocol:
as §1, §2

The mark [5] stands for this setting: OVCAR8 PTX R P, 48 h, 0.25 x IC50 of each drug.
Where [6] appears, read: OVCAR8 PTX R P, 48 h, 0.5 x IC50 of each drug.
[7] abbreviates: OVCAR8 PTX R P, 48 h, 2 x IC50 of each drug.
Where [8] appears, read: OVCAR8 PTX R P, 48 h, IC50 of each drug.

For orientation: IC50 means the point on the concentration scale where inhibition reaches its midpoint. The viability is the share of living cells, or the viability signal relative to a control.

In the case of `NCCCC(O)(P(=O)(O)O)P(=O)(O)O` [Alendronate], in data set [1] (HOSE6.3, single agent), the “IC50 (in words)” value is “not obtaining IC50 values in the considered concentration ranges”. Also, the IC50 in data set [2] (Homo sapiens, OVCAR-8, 48 h) turned out to be 196 ± 20.2 µM; in data set [3] (Homo sapiens, OVCAR-8, 48 h), 219 ± 13.6 µM.

Regarding `CCC(C)n1ncn(-c2ccc(N3CCN(c4ccc(OCC5COC(Cn6cncn6)(c6ccc(Cl)cc6Cl)O5)cc4)CC3)cc2)c1=O` (stereo not drawn) [Itraconazole], the IC50 in data set [1] (Homo sapiens) came to 38.6 ± 5.11 µM; in data set [2] (Homo sapiens, OVCAR-8, 48 h) it was 35.6 ± 0.48 µM; in data set [3] (Homo sapiens, OVCAR-8, 48 h), 39.1 ± 3.38 µM.

Take `CN(C)C(=N)N=C(N)N` [Metformin]: the “IC50 (in words)” value in data set [1] (HOSE6.3, single agent) is recorded as “not obtaining IC50 values in the considered concentration ranges”. Moreover, the IC50 in data set [2] (Homo sapiens, OVCAR-8, 48 h) was determined as 1460 ± 193 µM; in data set [3] (Homo sapiens, OVCAR-8, 48 h), 1500 ± 169 µM.

Regarding `O=C(O)C[C@H](O)C[C@H](O)/C=C/c1c(C2CC2)nc2ccccc2c1-c1ccc(F)cc1` [Pitavastatin], the viability at 48 h, 0.25 x IC50 in data set [4] is 81.8%. In data set [4], the viability at 48 h, 0.5 x IC50 was 76.5%. Also, the viability at 48 h, 1 x IC50 in data set [4] is 68.5%. Besides, in data set [4], the viability at 48 h, 2 x IC50 stood at 65.9%. Moreover, the viability at 48 h, 4 x IC50 in data set [4] was 61.4%. Also, the “IC50 (in words)” value in data set [1] (HOSE6.3, single agent) is “not obtaining IC50 values in the considered concentration ranges”. Besides, the IC50 in data set [2] (Homo sapiens, OVCAR-8, 48 h) was 0.85 ± 0.142 µM; in data set [3] (Homo sapiens, OVCAR-8, 48 h), 0.801 ± 0.061 µM. Besides, the “Cellular viability (%) Media” value is reported as 59.998% in data set [2] (setting [5]); 50.426% in data set [2] (setting [6]); 28.330% in data set [2] (setting [7]); 45.406% in data set [2] (setting [8]); 61.378% in data set [3] (0.25 x IC50 of each drug); 51.912% in data set [3] (0.5 x IC50 of each drug). Moreover, the figures for the “Cellular viability (%) Media” value in data set [3] (2 x IC50 of each drug) and in data set [3] (IC50 of each drug) were 27.970% and 45.624%, respectively.

Regarding Ivermectin, the “Cellular viability (%) Media” value in data set [1] (0.5 x IC50 of each drug) came out at 99.694%; in data set [1] (2 x IC50 of each drug), 0.539%; in data set [1] (4 x IC50 of each drug), 0.000%; in data set [1] (IC50 of each drug) it was 53.462%; in data set [2] (setting [5]), 81.152%; in data set [2] (setting [6]), 65.026%. Further, the “Cellular viability (%) Media” value in data set [2] (setting [7]) is 0.966%; in data set [2] (OVCAR8 PTX R P, 48 h, 4 x IC50 of each drug) it was 1.370%; in data set [2] (setting [8]) it was 47.496%; in data set [3] (0.25 x IC50 of each drug), 77.004%; in data set [3] (0.5 x IC50 of each drug), 69.934%; in data set [3] (2 x IC50 of each drug), 0.759%. Besides, the “Cellular viability (%) Media” value in data set [3] (4 x IC50 of each drug) came to 0.867%; in data set [3] (IC50 of each drug), 46.412%. Besides, the IC50 in data set [1] (HOSE6.3, single agent) worked out at 12.6 ± 2.19 µM; in data set [2] (OVCAR8 PTX R P, single agent, 48 h), 15.5 ± 1.86 µM; in data set [3] (OVCAR8, single agent, 48 h), 16 ± 2.91 µM.
